Legend:
sEH = conditions: non-selective pan-esterase inhibitor used at 100 μM; ref [18]; cited from earlier work
Cat sEH [1] = molecular target: T1, Cat sEH (Felis catus, UniProt A0ABI7ZL20); test: Primary screen (end point) of the sEH inhibitor library, PHOME substrate; type: biochemical; conditions: read-out: Cat sEH Inhibition (%) P.
Procedure: (§1) Primary screening of the library was performed with an inhibitor concentration of 100 nM using PHOME as substrate ([22]). […] The plates were then mixed and incubated at 30°C for 5 min. Across each plate, 30 μL of the working substrate solution (270 μL of 5 mM PHOME solution in DMSO diluted with 3,680 μL of buffer) were added quickly to yield [S]final: 50 μM. Each plate was further incubated at room temperature (horse sEH: 60 min; cat sEH: 45 min; dog sEH: 30 min).

Dog sEH [2] = molecular target: T2, Dog sEH (Canis lupus familiaris, UniProt A0A8I3NJL8); test: as above; type: biochemical; conditions: [I] = 100 nM, primary end-point screening
T2 sequence (A0A8I3NJL8 1-556): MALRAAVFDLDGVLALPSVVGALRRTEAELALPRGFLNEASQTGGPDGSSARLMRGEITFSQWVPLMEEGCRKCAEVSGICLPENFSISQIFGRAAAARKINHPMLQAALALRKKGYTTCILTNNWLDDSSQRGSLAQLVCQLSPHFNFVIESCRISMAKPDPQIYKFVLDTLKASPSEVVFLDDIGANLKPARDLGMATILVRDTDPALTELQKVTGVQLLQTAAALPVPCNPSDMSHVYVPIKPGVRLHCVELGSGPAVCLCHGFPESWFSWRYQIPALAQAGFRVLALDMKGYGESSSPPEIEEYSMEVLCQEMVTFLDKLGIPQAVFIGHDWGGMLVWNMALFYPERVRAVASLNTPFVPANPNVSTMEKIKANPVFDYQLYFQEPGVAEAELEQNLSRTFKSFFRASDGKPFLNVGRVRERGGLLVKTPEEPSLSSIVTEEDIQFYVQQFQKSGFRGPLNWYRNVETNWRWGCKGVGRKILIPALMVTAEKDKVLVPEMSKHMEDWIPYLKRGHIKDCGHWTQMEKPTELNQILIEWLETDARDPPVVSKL
Procedure: as §1

Horse sEH [3] = molecular target: T3, Horse sEH (Equus caballus, UniProt F7C407); test: as above; type: biochemical; conditions: [I] = 100 nM, primary end-point screening
T3 sequence (F7C407 entry or part of it): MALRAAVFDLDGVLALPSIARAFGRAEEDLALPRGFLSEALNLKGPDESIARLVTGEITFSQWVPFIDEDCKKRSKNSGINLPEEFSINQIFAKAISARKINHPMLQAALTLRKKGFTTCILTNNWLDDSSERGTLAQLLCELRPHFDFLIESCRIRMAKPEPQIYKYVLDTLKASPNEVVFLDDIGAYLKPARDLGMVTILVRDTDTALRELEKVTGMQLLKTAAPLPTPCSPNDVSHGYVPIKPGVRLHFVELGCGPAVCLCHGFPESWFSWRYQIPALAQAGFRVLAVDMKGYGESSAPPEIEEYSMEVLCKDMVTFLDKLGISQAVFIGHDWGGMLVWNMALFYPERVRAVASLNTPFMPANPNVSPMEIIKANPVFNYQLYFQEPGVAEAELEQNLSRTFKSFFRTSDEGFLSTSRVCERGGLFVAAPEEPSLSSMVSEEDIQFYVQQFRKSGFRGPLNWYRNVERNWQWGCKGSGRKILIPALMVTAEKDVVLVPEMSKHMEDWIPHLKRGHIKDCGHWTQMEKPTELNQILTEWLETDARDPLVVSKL
Procedure: as §1

Horse sEH [4] = molecular target: T3, Horse sEH; test: Secondary screen (kinetic mode), PHOME substrate; type: biochemical; conditions: [I] = 100 nM, secondary kinetic mode screening
Cat sEH [5] = molecular target: T1, Cat sEH; test: Secondary screen (kinetic mode), PHOME substrate; type: biochemical; conditions: read-out: Cat sEH Inhibition (%) S.
Dog sEH [6] = molecular target: T2, Dog sEH; test: Secondary screen (kinetic mode), PHOME substrate; type: biochemical; conditions: [I] = 100 nM, secondary kinetic mode screening
[7] = molecular target: sEH activity from liver cytosol of Cow (Bos taurus, UniProt Q17QK4); test: sEH inhibition potency (IC50), radioactive assay with [3H]t-DPPO, liver cytosol; type: biochemical; conditions: [3H]t-DPPO ([S]final = 5 μM) as substrate
Chain of sEH activity from liver cytosol of Cow (Q17QK4 entry or part of it): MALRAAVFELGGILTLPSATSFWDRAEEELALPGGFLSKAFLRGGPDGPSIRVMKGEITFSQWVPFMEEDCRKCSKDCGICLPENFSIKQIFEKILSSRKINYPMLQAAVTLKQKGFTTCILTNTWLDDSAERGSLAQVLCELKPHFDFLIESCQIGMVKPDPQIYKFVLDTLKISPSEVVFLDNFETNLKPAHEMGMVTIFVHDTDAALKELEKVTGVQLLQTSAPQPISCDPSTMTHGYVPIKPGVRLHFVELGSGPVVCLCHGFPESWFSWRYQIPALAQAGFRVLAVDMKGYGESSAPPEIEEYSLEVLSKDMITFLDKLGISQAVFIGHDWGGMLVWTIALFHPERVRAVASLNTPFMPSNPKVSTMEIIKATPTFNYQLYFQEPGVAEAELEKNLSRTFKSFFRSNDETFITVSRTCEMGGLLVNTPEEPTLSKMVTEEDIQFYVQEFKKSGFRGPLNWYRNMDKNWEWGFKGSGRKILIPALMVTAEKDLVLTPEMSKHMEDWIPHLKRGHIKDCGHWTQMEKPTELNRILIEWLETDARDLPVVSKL
Description: (§2) Fresh liver tissues samples (5–30 g) were collected promptly after death from healthy adult cat, dog and horse euthanized for reasons unrelated to this study, and whose bodies were given to science by the owners in line with federal regulations and protocol approved by the Institutional Animal Care and Use Committee at University of California Davis. Similarly, tissues from the other animals tested herein were collected from healthy animals immediately after being slaughter at the university abattoir. Because no animals were directly used or killed for this study, sample collections were exempted from approval by the Institutional Animal Care and Use Committee of the University of California Davis and Michigan State University. […] The tissues were flash-frozen in liquid nitrogen following removal, and then kept at −80°C until used. After thawing on ice, the samples were homogenized in chilled sodium phosphate buffer (20 mM pH 7.4) containing 5 mM EDTA, 1 mM DTT and 1 mM PMSF (tissue weight:buffer volume ratio 1:4). These homogenates were centrifuged at 100,000 g for 60 min at 4°C. The supernatant (the cytosolic fraction) was separated from the pellet, aliquoted and flash frozen in liquid nitrogen, then kept frozen at −80°C until usage.
(§3) The IC50 values reported herein were determined using either a fluorescent based assay (CMNPC as substrate) for purified enzyme preparations or a radioactive based assay ([^3H]t-DPPO as substrate) for crude enzyme preparations ([20]). The fluorescent assay was used with the purified proteins. […] The substrate (CMNPC) was then added ([S]final = 5 μM). […] The radioactive […] assay was used with the liver crude extracts. Extracts were incubated with inhibitors ([I]final = 1–1,000 nM) at 30° C for 5 min in sodium phosphate buffer (pH 7.4) containing 0.1 mg/mL of BSA and 1% of DMSO, prior to substrate introduction ([^3H]t-DPPO [S]final: 50 μM; ~12,000 dpm/assay). The enzymes were incubated at 30°C for 10 min, and the reaction was quenched by the addition of 60 μL methanol and 200 μL isooctane, which extracts the remaining epoxide from the aqueous phase. […] Assays were performed in triplicate.

[8] = molecular target: T4, sEH activity from liver cytosol of Hamster (Mesocricetus auratus, UniProt A0A1U7QV09); test: as above; type: biochemical; conditions: [3H]t-DPPO ([S]final = 5 μM) as substrate
T4 sequence (A0A1U7QV09 1-554): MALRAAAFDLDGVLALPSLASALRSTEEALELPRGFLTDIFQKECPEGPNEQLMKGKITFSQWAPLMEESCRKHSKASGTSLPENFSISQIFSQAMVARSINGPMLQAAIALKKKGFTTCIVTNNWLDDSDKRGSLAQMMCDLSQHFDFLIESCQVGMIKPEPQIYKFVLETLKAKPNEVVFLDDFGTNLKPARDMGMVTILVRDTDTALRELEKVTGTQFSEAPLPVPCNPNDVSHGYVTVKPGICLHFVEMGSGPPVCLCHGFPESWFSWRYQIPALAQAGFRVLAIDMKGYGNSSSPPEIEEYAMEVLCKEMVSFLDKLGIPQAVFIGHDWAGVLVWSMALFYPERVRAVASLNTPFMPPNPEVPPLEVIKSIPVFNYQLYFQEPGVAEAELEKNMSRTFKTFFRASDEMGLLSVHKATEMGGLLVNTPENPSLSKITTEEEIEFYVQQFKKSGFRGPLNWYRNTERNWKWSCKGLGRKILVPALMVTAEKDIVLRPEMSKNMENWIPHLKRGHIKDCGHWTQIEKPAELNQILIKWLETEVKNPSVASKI
Description: as §2, §3

Microsomal stability [9] = type: in vitro ADME, horse; conditions: 1 μM inhibitor, microsomes 1 mg/mL, 37°C, 30 min, compound remaining, average ± SD (n = 3)
Procedure: (§4) The stability of the sEH inhibitors was determined using liver microsomes as described ([24]). […] After 30 min at 37°C, the reaction was stopped by the addition of one volume of methanol containing CUDA (200 nM) as surrogate. The amount of remaining inhibitor was determined by LC/MS/MS. The stability is reported as a percentage of compound remaining after 30 min in these conditions.
(§5) Mass spectrometry analyses were performed using a Waters Quattro Premier triple quadrupole tandem mass spectrometer (Micromass, Manchester, UK) interfaced to an electrospray ionization (ESI) source. The MS was coupled with a Waters Acquity UPLC (Waters, Milford, MA, USA). A Varian Pursuit5 C18 RP HPLC column (150 mm × 2.1 mm, particle size 5 μm) was used to separate the analytes. […] The source and the desolvation temperatures were set at 120 and 300°C, respectively. […] Dwell time was set to 0.1 s.

Microsomal stability [10] = type: in vitro ADME, cat
Procedure: as §4, §5

Microsomal stability [11] = type: in vitro ADME, dog; conditions: 1 μM inhibitor, microsomes 1 mg/mL, 37°C, 30 min, compound remaining, average ± SD (n = 3)
Procedure: as §4, §5

T1 sequence (A0ABI7ZL20 entry or part of it): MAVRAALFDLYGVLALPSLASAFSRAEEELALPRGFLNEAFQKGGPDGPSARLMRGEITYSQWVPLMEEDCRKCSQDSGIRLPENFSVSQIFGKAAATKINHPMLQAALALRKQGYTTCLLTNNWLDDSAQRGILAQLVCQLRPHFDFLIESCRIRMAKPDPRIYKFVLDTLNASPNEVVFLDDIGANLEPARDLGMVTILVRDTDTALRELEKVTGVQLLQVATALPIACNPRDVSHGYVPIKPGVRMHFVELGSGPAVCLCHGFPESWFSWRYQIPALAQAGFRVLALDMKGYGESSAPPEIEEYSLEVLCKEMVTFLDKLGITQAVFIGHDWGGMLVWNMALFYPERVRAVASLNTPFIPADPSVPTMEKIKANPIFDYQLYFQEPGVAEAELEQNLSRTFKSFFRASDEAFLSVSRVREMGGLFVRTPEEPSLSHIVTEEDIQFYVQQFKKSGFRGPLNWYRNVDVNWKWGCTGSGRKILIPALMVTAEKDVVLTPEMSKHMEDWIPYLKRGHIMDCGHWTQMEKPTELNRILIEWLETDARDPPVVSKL

CCOP(=O)(OCC)Oc1ccc([N+](=O)[O-])cc1 [Paraoxon]
inhibition of sEH (sEH): does not inhibit sEH

CC1CCCCC1NC(=O)Nc1ccccc1 (centres unmarked) [Siduron]
inhibition at 0.1 µM (Cat sEH [1]): 93% | Dog sEH Inhibition (%) P. (Dog sEH [2]): < 90% | Horse sEH Inhibition (%) P. (Horse sEH [3]): 92% | Horse sEH Inhibition (%) S. (Horse sEH [4]): 81% | inhibition at 0.1 µM (Cat sEH [5]): 77% | Dog sEH Inhibition (%) S. (Dog sEH [6]): 43%

O=C(O)CCCCCCCCCCCNC(=O)NC12CC3CC(CC(C3)C1)C2 [compound 700]
inhibition at 0.1 µM (Dog sEH [2]; read-out: Dog sEH Inhibition (%) P.): 92% | inhibition at 0.1 µM (Horse sEH [3]; read-out: Horse sEH Inhibition (%) P.): 94% | inhibition at 0.1 µM (Horse sEH [4]; read-out: Horse sEH Inhibition (%) S.): 85% | inhibition at 0.1 µM (Dog sEH [6]; read-out: Dog sEH Inhibition (%) S.): 80% | IC50 [7]: 6 nM | IC50 [8]: 5 nM | Stability (% without microsomes) Horse liver microsomes NADPH + (Microsomal stability [9]; with NADPH): 96 ± 9% | Stability (% without microsomes) Horse liver microsomes NADPH – (Microsomal stability [9]; without NADPH): 114 ± 15% | Stability (% without microsomes) Cat liver microsomes NADPH + (Microsomal stability [10]; 1 μM inhibitor, microsomes 1 mg/mL, with NADPH, 37°C, 30 min, compound remaining, average ± SD (n = 3)): 28 ± 3% | Stability (% without microsomes) Cat liver microsomes NADPH – (Microsomal stability [10]; 1 μM inhibitor, microsomes 1 mg/mL, without NADPH, 37°C, 30 min, compound remaining, average ± SD (n = 3)): 105 ± 11% | metabolism in cat liver microsomes (in words) (Microsomal stability [10]; in the presence of NADPH): quickly transformed | Stability (% without microsomes) Dog liver microsomes NADPH + (Microsomal stability [11]; with NADPH): 66 ± 9% | Stability (% without microsomes) Dog liver microsomes NADPH – (Microsomal stability [11]; without NADPH): 94 ± 6%
